# According to patent EP4335840A1, “NEW CONTRAST AGENTS FOR USE IN DIAGNOSTIC IMAGING” (priority 2022, dated 2024):
# Columns and labels:
# [1] = Water solubility in aqueous buffer; format: physicochemical; settings: aqueous buffer 10 mM Tris-HCl, pH 7.4, 20°C; Gd by ICP-MS
# Experimental: The exploratory water solubility of the compounds is determined at room temperature (20°C) in 0.5 mL buffer solution (10 mM Tris-HCI, pH 7.4) in the microcentrifuge tubes (Eppendorf, 2.0 mL safe-lock caps). The solid compounds were added stepwise to the buffer solution. More substance is added once all the suspended material is dissolved until an equilibrium between undissolved and dissolved substance is reached. The suspension was mixed using a shaker (Heidolph Reax 2000) and treated 5 min in an ultrasound bath (Bandelin, Sonorex Super RK255H). The Gadolinium concentration of the test substance in the clear solution is measured by ICP-MS. Table 1: Solubilities of compounds in aqueous buffer at 20°C (pH 7.4).
# [2] = Complex stability (transmetallation with Zn2+, proton relaxometry); format: physicochemical; settings: 72 hours, 2.5 mM Zn2+, 26 mM phosphate buffer, 37°C, pH 7.4; 1.41 T
# Experimental: The used method is described elsewhere (Laurent S et al., Stability of MRI paramagnetic contrast media: a proton relaxometric protocol for transmetallation assessment. Invest Radiol. 2001 Feb;36(2):115-22). In brief: A solution containing 2.5 mmol/L of test compound and 2.5 mmol/L ZnCl2 in 26 mM phosphate buffer (KH2PO4 Merck; 1.09439.1000, #HC748513, pH 7,00), was incubated at 37°C over a period of at least 3 days. If test compounds are instable under these conditions, transmetallation during this test would lead to the formation of the Zn^2+ complex of the test item, while Gd^3+ is released and precipitated as highly insoluble GdPO4.
# After 3d of incubation T1 relaxation time was observed. […] Table 2: Transmetallation stability [%] of paramagnetic contrast agents over 72 hours (2.5 mM Zn2+, 26 mM phosphate buffer, 37°C, pH 7.4).
# [3] = Relaxivity measurements at 1.41 T in water and human plasma; format: physicochemical; settings: 37°C, normalized to Gd
# Experimental: Relaxivity measurements at 1.41 T were performed using a MiniSpec mq60 spectrometer (Bruker Analytik, Karlsruhe, Germany) operating at a resonance frequency of 60 MHz and a temperature of 37°C. The T1 relaxation times were determined using the standard inversion recovery (IR) method with a fixed relaxation delay of at least 5 × T1. The variable inversion time (TI) was calculated automatically by the standard software of the MiniSpec mq60 (8 steps). The T2 measurements were performed by using a Carr-Purcell-Meiboom-Gill (CPMG) pulse sequence, applying a relaxation delay of at least 5 × T1.
# Each relaxivity measurement was performed using three different Gd concentrations (3 concentrations between 0.05 and 2 mM). The T1 and T2 relaxation times of the example compounds 1 to 10 were measured in different media for example in water and human plasma. Human plasma preparation: For each experiment fresh blood was taken from a volunteer using 10 mL citrate-tubes (Sarstedt S-Monovette 02.1067.001, 10 mL, Citrate). The 10 mL citrate-tubes were carefully inverted 10 times to mix blood and anticoagulant and centrifuged for 15min at 1811 g at RT (Eppendorf, Centrifuge 5810R).
# The relaxivities ri (where i=1, 2) were calculated based on the measured relaxation rates Ri in water and plasma: ri = (Ri−Ri(0))/CGd [formula] where Ri(0) represent the relaxation rate of the respective solvent and CGd the concentration of the compound normalized to the Gadolinium. The Gadolinium concentrations of the investigated solutions were verified by Inductively Coupled Plasma Mass Spectrometry (ICP-MS Agilent 7500a, Waldbronn, Germany). Table 3: Relaxivities of investigated compounds in water and human plasma at 1.41 T and relaxivities of Reference compounds 1-3 (RC1-RC3) at 1.5 T in water and bovine plasma. All values are measured at 37°C and normalized to Gd and given in L mmol-1 s-1.
# OATP1B1 = target: T1, OATP1B1 (Homo sapiens, UniProt Q9Y6L6); experiment: Uptake into stable transfected OATP1B1 HEK 293 cells; format: cell-based; settings: OATP1B1-HEK 293 cell uptake with Rifampicine
# T1 sequence (Q9Y6L6 1-691): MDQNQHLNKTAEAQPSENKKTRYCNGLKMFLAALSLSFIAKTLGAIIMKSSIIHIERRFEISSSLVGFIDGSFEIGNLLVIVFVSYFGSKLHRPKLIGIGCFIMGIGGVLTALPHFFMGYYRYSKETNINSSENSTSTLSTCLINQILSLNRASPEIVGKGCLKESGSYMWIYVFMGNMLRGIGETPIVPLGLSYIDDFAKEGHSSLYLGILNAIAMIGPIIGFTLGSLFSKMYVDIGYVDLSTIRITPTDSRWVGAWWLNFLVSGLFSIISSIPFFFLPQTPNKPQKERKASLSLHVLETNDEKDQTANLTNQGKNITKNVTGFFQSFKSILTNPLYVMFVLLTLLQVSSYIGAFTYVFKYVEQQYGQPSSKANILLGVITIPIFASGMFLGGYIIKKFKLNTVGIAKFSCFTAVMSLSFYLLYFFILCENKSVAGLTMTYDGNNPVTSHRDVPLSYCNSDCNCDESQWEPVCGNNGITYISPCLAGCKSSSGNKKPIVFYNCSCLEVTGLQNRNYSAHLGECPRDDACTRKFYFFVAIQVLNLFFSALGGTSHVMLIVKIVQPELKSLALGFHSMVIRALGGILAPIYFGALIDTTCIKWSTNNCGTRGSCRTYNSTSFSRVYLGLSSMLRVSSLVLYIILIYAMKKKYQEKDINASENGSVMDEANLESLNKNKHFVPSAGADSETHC
# OATP1B3 = target: T2, OATP1B3 (Homo sapiens, UniProt Q9NPD5); experiment: Uptake into stable transfected OATP1B3 HEK 293 cells; format: cell-based; settings: OATP1B3-HEK 293 cell uptake with Rifampicine
# T2 sequence (Q9NPD5 1-702): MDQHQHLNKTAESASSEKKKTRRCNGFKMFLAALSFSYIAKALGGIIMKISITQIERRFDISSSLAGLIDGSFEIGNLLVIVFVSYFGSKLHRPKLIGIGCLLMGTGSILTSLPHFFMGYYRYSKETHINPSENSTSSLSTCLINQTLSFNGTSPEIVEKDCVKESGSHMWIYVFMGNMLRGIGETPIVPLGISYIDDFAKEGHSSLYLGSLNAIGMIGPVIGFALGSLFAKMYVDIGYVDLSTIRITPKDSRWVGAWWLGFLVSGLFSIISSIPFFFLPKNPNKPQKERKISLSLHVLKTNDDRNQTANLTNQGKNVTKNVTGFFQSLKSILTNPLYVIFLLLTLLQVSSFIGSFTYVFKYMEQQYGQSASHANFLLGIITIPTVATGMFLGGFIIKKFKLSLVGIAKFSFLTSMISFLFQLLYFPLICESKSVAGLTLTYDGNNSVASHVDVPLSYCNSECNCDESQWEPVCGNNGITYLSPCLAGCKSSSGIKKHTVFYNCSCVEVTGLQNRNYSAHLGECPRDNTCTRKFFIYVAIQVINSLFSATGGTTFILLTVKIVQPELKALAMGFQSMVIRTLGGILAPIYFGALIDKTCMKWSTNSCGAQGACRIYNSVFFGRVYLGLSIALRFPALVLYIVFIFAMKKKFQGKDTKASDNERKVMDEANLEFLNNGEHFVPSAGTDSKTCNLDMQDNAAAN
# [4] = test system: freshly isolated rat hepatocytes; experiment: Uptake into freshly isolated rat hepatocytes; settings: rat hepatocyte uptake with OATP1B1/1B3 inhibitor Rifampicine, test item and inhibitor each 100 µM
# Experimental: The rat hepatocytes were incubated (2.5 ·10^5 cells/well) for 2.5 to 4h in collagen coated 24-well plates (Fa. Beckton Dickinson Biocoat, cell environments, Collagen I Cellware) in Williams E-medium (Fa. Sigma W1878) in an incubator (37°C, 5% CO2 and 95% oxygen). After incubation the adherent hepatocytes were washed once with 37°C Hepes carbonate transport buffer (500 µL/well). The test items and RC1 were prepared from stock solutions (180 to 500 mM concentration) in Hepes carbonate transport buffer at pH 7.4 to reach a final concentration of 100 µmοl Gd/L. The specific uptake of the test item or RC1 into rat hepatocytes via OATP1 B1 and OATP1 B3 was challenged using a known OATP1B1/1B3 inhibitor (Rifampicine, Fa. Sigma R3501, test item and inhibitor 1:1 each 100 µM final concentration). The prepared rat hepatocyte plates were incubated with test solutions (500 µL/well) at 37°C for 10 min using a thermoshaker (Fa. Grant Bio, PHMP). Triplicates were performed for each test item. After incubating the cells were washed once with cold PBS buffer (Fa. Gibco, Dulbeccos PBS (+)). After washing the intact hepatocytes were lysed by addition of 500 µL cold 0.01 % Triton-X 100 in Millipore water for 1h. […] After 1h 500 µL of 10 nM Terbium ICP-MS standard was added in 2% nitric acid and 0.01% Triton 100 before the Gadolinium concentrations in the lysate were measured using ICP-MS (Agilent 8900, singleQuad, integr. Time 0.3 s, no gas, 5 replicates, Gd m/z 157, Tb m/z 159). As a reference standard RC1 is used in the same well plate. The hepatocyte uptake of the test compound is calculated relative to RC1 (resulting in the unit % of RC1).
# [5] = No-observed-adverse-effect level (NOAEL), intravenous bolus; settings: mice, intravenous bolus via tail vein, dose levels up to 2.5 mmol Gd/kg bw
compound,measurement,setting,value
"CCOc1ccc(CC2CN(CC(=O)[O-])CCN(CC(=O)[O-])CCN(CC(=O)O)CCN2CC(=O)[O-])cc1.[Gd+3] (centres unmarked) [Example 7, Gadolinium-2,2',2""-[10-(carboxymethyl)-2-(4-ethoxybenzyl)-1,4,7,10-tetraazacyclododecane-1,4,7-triyl]triacetate]",Solubility,[1],> 403 mM
same,"Stability (transmetallation stability, T1 relaxation rates R1n/R10)",[2],98%
same,r1 human plasma,[3]; human plasma,6.2 L/mmol/s
same,r1 water,[3]; water,4.5 L/mmol/s
same,Inhibition Rifampicine,OATP1B1,78 % inhibition
same,Inhibition Rifampicine,OATP1B3,95 % inhibition
same,Inhibition Rifampicine,[4],96 % inhibition
same,NOAEL,[5],1.50 mmol Gd/kg bw
